Results taken from article PMC10304225, “In Vitro Cytotoxicity and In Vivo Antitumor Activity of Lipid Nanocapsules Loaded with Novel Pyridine Derivatives” (Pharmaceutics, 2023).
Values after ≈ are worked out from the molar mass of the structure shown.

What was measured:
[1] = Solubility measurement in various solvents (excess compound, 72 h shaking); assay type: physicochemical; conditions: for solubility in PB (pH 7.4): phosphate buffer pH 7.4
Description: The solubility of 2-amino-4-aryl-6-substituted pyridine-3,5-dicarbonitrile derivatives (S1–S4) in various solvents (methanol, ethanol, phosphate buffer, and water) was determined by adding an excess amount of each compound to 10 mL of each solvent in a sealed conical flask. The slurry was then agitated at 100 rpm in a temperature-controlled incubator shaker for 72 h to reach equilibrium. The undissolved particles were allowed to settle by keeping the saturated solution without agitation for another 2 h. The solution was then centrifuged at 10,000 rpm for 10 min. One mL samples of the clear supernatant was withdrawn, diluted with the suitable solvent, and finally analyzed spectrophotometrically at pre-determined wavelengths (Table S1).

A549 cells = assay: In vitro cytotoxicity, MTT assay; assay type: cell-based, human; conditions: 48 h, read-out: IC50 against A549
Description: (§1) A human lung cancer (A549) cell line, human breast adenocarcinoma (MCF-7), and normal MCF-10A human […] were obtained from VASCERA Co. (Vaccines Sera and Drugs; Cairo, Egypt). […] were cultured in Dulbecco’s modified Eagle’s medium (DMEM, Biowest, Nuaillé, France) supplemented with 10% fetal bovine serum, 100 U/mL penicillin/100 μg/mL streptomycin, and incubated under standard conditions (37 °C, 5% CO2).
(§2) The in vitro cytotoxicities of various pyridine derivatives loaded into LPNCs against A549 cells and MCF-7 cells were evaluated by the MTT assay. Briefly, 100 μL cell suspension equivalent to 1 × 10^4 cells/well was planted in a 96-well plate and incubated at 37 °C. At 24 h post-incubation, the cells were treated with 100 μL of serial dilutions of either free pyridine derivatives (S1–S4) or pyridine derivatives (S1–S4)-loaded LPNCs in a concentration range of 0.1 to 100 μM. The cells were further incubated at 37 °C for 48 h. The spent culture medium was then decanted, the cells were rinsed, 50 μL of MTT reagent (0.5 mg/mL) was added to each well, and the cells were incubated for 4 h at 37 °C. Finally, to dissolve the formazan crystals, DMSO solution (150 μL) was added to each well. The absorbance of each well was measured at 570 nm using a microplate reader (TEKAN Japan, Kawasaki, Japan). The percent cell viability was plotted against the tested compound concentration to determine the IC50 values.

MCF-7 cells = assay: In vitro cytotoxicity, MTT assay; assay type: cell-based, human; conditions: 48 h, read-out: IC50 against MCF-7
Description: as §1, §2

[2] = test system: Ehrlich ascites carcinoma (EAC) solid tumor; assay: In vivo antitumor activity in EAC solid tumor-bearing mice; conditions: 10 mg/kg i.p. every other day for 21 days
Description: Ehrlich ascites carcinoma (EAC) cells (1 × 10^6 cells) obtained from the National Cancer Institute (Cairo, Egypt) were injected intraperitoneally into the peritoneal cavity of Swiss Albino mice. On day 7 post tumor cell inoculation, ascites fluid was collected. EAC was diluted with saline to obtain a cell density of 25 × 10^6 cells/mL. Then, 200 μL of the cells were injected subcutaneously in the mice’s right flanks. Tumor growth was monitored post-inoculation, and the size of the tumor was measured with a Vernier caliper. Treatment protocols were initiated on day 8 post tumor inoculation, when the tumor was palpable. […]
The dose and route of administration of the test compound and the treatment regimen were established based on previously published reports. The antitumor efficacy of different treatment protocols was evaluated in terms of tumor size, percentage tumor growth inhibition (% TGI), median survival time (MST), and percentage increase in life span (% ILS) using the following equations [31, 32]:Tumor size (mm^3) = ½ (Length × Width^2) % TGI=1−Mean tumor volume of treated group/Mean tumor volume in control group×100 MST = (day of first death + day of last death)/2 %ILS=MSTtreated group/MSTcontrol group−1×100
In addition, body weight was assessed concurrently to determine any remarkable systemic toxicity.

[3] = test system: Ehrlich ascites carcinoma (EAC) solid tumor; assay: Histopathological examination of solid tumors (H&E); assay type: in vivo, mice; conditions: 10 mg/kg
Description: On the last day of the experiment, solid tumors were dissected from all mice and were fixed […] in formalin-alcohol for 48 h, dehydrated in an alcohol series, cleared in xylene, and embedded in paraffin. Sections (4–5 μm in thickness) were stained with hematoxylin and eosin (H&E). Slides were then imaged using a Universal Infinity System optical microscope (Olympus®, Tokyo, Japan) equipped with a computer-controlled digital camera. A histopathological analysis of the tumor sections was focused on finding a typical mitotic picture, neoplastic giant cells, and the extension of the necrotic area. Histopathological examinations were evaluated in a blinded way by a pathologist.

[4] = Biochemical analysis of liver and kidney functions in serum; assay type: in vivo; conditions: EAC-bearing mice, 10 mg/kg i.p., last day of experiment
Description: On the last day of the experiment, 4 out 8 mice were euthanized, and blood samples were collected by cardiac puncture in dry Eppendorf tubes. Blood samples were set aside for 30 min at room temperature and the tubes were then centrifuged for 15 min at 2000× g to obtain serum. To assess possible hepatic damage, aspartate transaminase (AST) and alanine transaminase (ALT) activities in serum samples were assayed by using a commercial kit (Biodiagnostic, Cairo, Egypt) according to the method of Reitman and Frankel. In addition, serum creatinine level was quantified as an indicator for possible renal damage. The level of serum creatinine was analyzed by using a commercial kit that was purchased from Biodiagnostic (Cairo, Egypt) according to manufacturer instructions.

Swiss Albino mice [5] = assay: Median lethal dose (LD50), single i.p. injection; assay type: in vivo; conditions: for Number of animal dead: n=5, 24 h
Description: The median lethal dose (LD50) test was performed to determine the dose of a test substance that elicits 50% death in mice. Briefly, a total of 30 mice were categorized into 6 groups (n = 5). Each group was dosed with a single intraperitoneal injection of the test compound (S4) dissolved in 3% dimethyl sulfoxide. The screened doses ranged from 100 to 180 mg/kg. The animals were then monitored for 2 h and then at 4, 6, and 24 h for signs of toxicity. At the end of 24 h, the total number of deaths was recorded. The LD50 was then calculated using the following equation [27]: LD50=LD100−{Σ[Dose difference×Mean dead]}/Number of animals per group where LD100 is the lowest dose capable of killing 100% of animals.

Swiss Albino mice [6] = assay: Acute toxicity study, single i.p. dose; assay type: in vivo
Description: Acute toxicity studies are carried out in order to evaluate the short-term negative effects of a test compound when administered in a single dose during a period of 24 h. Briefly, the maximum tolerated dose (100 mg/kg) of the test compound (S4), dissolved in 3% dimethyl sulfoxide, was injected intraperitoneally in a group of mice (n = 5). A control group (n = 5) was i.p. injected with an equivalent volume of 3% dimethyl sulfoxide. The mice were then observed for general behavior for 1 h post-treatment and then intermittently for 4 h and finally at 24 h. The mice were then monitored for up to 14 days after treatment for symptoms of toxicity or mortalities.

Cc1ccc(Nc2nc(N)c(C#N)c(-c3ccccc3)c2C#N)cc1 [Compound S2]
solubility in ethanol [1]: 13.82 ± 0.326 mg/mL (≈ 42.5 mM) | solubility in methanol [1]: 25.71 ± 0.323 mg/mL (≈ 79 mM) | solubility in PB (pH 7.4) [1]: 1.63 ± 0.005 mg/ml | solubility in water [1]: 1.25 ± 0.006 mg/mL (≈ 3.84 mM) | IC50 (A549 cells): > 100 µM | IC50 (MCF-7 cells): > 100 µM

CCNc1nc(N)c(C#N)c(-c2ccccc2)c1C#N [Compound S1]
solubility in ethanol [1]: 5.98 ± 0.230 mg/mL (≈ 22.7 mM) | solubility in methanol [1]: 21.76 ± 0.260 mg/mL (≈ 82.6 mM) | solubility in water [1]: 0.57 ± 0.021 mg/mL (≈ 2.16 mM) | IC50 (A549 cells): > 100 µM | IC50 (MCF-7 cells): > 100 µM

O=c1[nH]cc(F)c(=O)[nH]1 [Compound 5-FU, 5-fluorouracil, reference compound]
tumor growth inhibition rate (TGI (%)) [2]: 86.81% | tumor section histology [3]: loss of cellular architecture and tumor tissue compactness | ALT [4]: 51.87 ± 1.29 IU/L | AST [4]: 74.23 ± 3.84 IU/L | Creatinine [4]: 1.05 ± 0.15 mg/dL

N#Cc1c(N)nc(Nc2ccccc2)c(C#N)c1-c1ccccc1 [Compound S4]
solubility in ethanol [1]: 18.56 ± 0.337 mg/mL (≈ 59.6 mM) | solubility in methanol [1]: 16.57 ± 0.315 mg/mL (≈ 53.2 mM) | solubility in PB (pH 7.4) [1]: 0.59 ± 0.001 mg/ml | solubility in water [1]: 0.58 ± 0.002 mg/mL (≈ 1.86 mM) | IC50 (A549 cells): > 100 µM | IC50 (MCF-7 cells): > 100 µM | lethality and signs of toxicity (Swiss Albino mice [5]; 100 mg/kg i.p.): not lethal but only induced drowsiness | Number of animal dead (Swiss Albino mice [5]; 100 mg/kg i.p.): 0 | lethality (Swiss Albino mice [5]; 120 mg/kg and higher, i.p.): lethal to animals | Number of animal dead (Swiss Albino mice [5]; 120 mg/kg i.p.): 5 | Number of animal dead (Swiss Albino mice [5]; 140 mg/kg i.p.): 5 | Number of animal dead (Swiss Albino mice [5]; 160 mg/kg i.p.): 5 | Number of animal dead (Swiss Albino mice [5]; 180 mg/kg i.p.): 5 | maximum tolerated dose (Swiss Albino mice [6]; mice, i.p.): 100 mg/kg | acute toxicity observations (Swiss Albino mice [6]; up to 100 mg/kg i.p., monitored up to 14 days): no behavioral abnormalities, toxicity symptoms, or mortalities were detected | tumor growth inhibition rate (TGI (%)) [2]: 73.42% | tumor section histology [3]: loss of cellular architecture and tumor tissue compactness | ALT [4]: 20.50 ± 1.28 IU/L | AST [4]: 36.66 ± 1.87 IU/L | Creatinine [4]: 0.54 ± 0.02 mg/dL

N#Cc1c(N)nc(N)c(C#N)c1-c1ccccc1 [Compound S3]
solubility in ethanol [1]: 18.86 ± 0.225 mg/mL (≈ 80.2 mM) | solubility in methanol [1]: 35.36 ± 0.203 mg/mL (≈ 150 mM) | solubility in PB (pH 7.4) [1]: 0.59 ± 0.010 mg/ml | solubility in water [1]: 0.99 ± 0.007 mg/mL (≈ 4.21 mM) | IC50 (A549 cells): > 100 µM | IC50 (MCF-7 cells): > 100 µM
